From US20060159776A1, “Compositions comprising components coated with a liquid impermeable but gas permeable layer, use thereof for treating cutaneous and other exocrine gland diseases” (priority 2003, published 2006)
“Also recorded” adds a separate entry of the source.

System: adults suffering from diabetes type 2
Assay: Four-week substitution trial in adults with diabetes type 2 controlled by metformin alone

SMILES: CN(C)C(=N)N=C(N)N [metformin, Metformin]
- fasting plasma glucose (FPG) control (before the trial, on regular metformin 500 mg twice daily to 850 mg three times daily, five adults): below 8 mmol/l
- side-effects of taking metformin (regular metformin, metallic taste three of five, abdominal discomfort all five): metallic taste in the mouth occasionally; also recorded: occasional abdominal discomfort
